Measured values taken from patent US11584755B2 (IDEAYA BIOSCIENCES, INC., priority 2017, dated 2023).

Molecular target: hFEN1 (Homo sapiens (Human), UniProt P39748)
Assay: Enzymatic IC50 assay, FAM-labeled DNA oligomer substrate, fluorescence intensity (FEN1)
Assay type: biochemical
Details: hFEN1 70 pM, substrate 100 nM, reaction time 20 minutes, 23° C.
Method: FEN1, EXO1 or XPG enzyme was incubated with compound or vehicle (DMSO) and the FAM-labeled DNA oligomer substrate in a microtiter plate. The stop buffer contains EDTA to stop the enzymatic reaction. The plate is read for fluorescence intensity. The high control (DMSO) with high fluorescence intensity represents no inhibition of enzymatic reaction while the low control (10 μM) with low fluorescence intensity represents full inhibition of enzymatic reaction.
• FEN1 • hFEN1: 70 pM • Substrate: 100 nM • Reaction time: 20 minutes • EXO1 • hEXO1: 6 nM, Isoforml • Substrate: 30 nM • Reaction time: 60 minutes • XPG • hXPG: 100 nM • Substrate: 100 nM • Reaction time: 120 minutes
Annealing Buffer: 50 mM Tris-HCl, 50 mM NaCl, 1 mM DTT Assay buffer: 50 mM Tris-HCl pH 8.0, 10 mM MgCl2, 0.01% BSA, 1 mM DTT Stop buffer: 50 mM EDTA in assay buffer Temperature: 23° C. Total volume: 40 μl Controls: • 0% inhibition control: DMSO • 100% inhibition control: 10 μM (final) 5-chloro-3-hydroxy-1,3-dihydroquinazoline-2,4-dione Enzyme Reaction and Detection: • 1. Prepare 25 μM intermediate stock of the substrate by diluting SEQ ID NO:1, SEQ ID NO:2, and SEQ ID NO:3 in annealing buffer, in a PCR tube. • 2. Place the PCR tube on a heat block, heat at 95° C. for 3 minutes, then drop in 0.2° C. increments over 2 minutes, stopping at 25° C. • 3. Remove the tube and let the tube cool at room temperature. • 4. Transfer 10 μL of 3× final concentration test compounds or DMSO to the appropriate wells of a microtiter plate. • 5. Transfer 10 μL of 3× final concentration enzyme in assay buffer or assay buffer alone to the appropriate wells. • 6. Incubate the plate at room temperature for 15 minutes. • 7. Transfer 10 μL of 3× substrate in assay buffer to all the test wells. • 8. Incubate the plate at room temperature for prescribed reaction time. • 9. Centrifuge the plate at 1000 rpm for 1 minute. • 10. Transfer 10 μL of stop buffer to all the test wells. • 11. Centrifuge the plate at 1000 rpm for 1 minute. • 12. Read the plate on a plate reader.

Sequence of hFEN1 (P39748 whole entry): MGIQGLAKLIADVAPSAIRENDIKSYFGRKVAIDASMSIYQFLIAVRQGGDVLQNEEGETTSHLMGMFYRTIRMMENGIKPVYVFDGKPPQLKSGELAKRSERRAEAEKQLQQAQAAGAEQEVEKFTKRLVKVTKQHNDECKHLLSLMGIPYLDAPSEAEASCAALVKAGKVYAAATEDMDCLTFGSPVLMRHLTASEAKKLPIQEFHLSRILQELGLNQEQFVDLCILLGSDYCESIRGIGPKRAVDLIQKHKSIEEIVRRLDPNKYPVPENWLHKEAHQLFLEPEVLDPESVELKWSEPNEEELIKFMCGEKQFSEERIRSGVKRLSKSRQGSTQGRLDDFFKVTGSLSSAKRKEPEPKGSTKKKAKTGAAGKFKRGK

Row | SMILES | IC50 [nM]
1 | O=C(O)c1c(O)c(=O)n(Cc2cnn(CC(=O)N3CC[C@@H](O)C3)c2)c2ccsc12 [Example 27, 6-hydroxy-4-[(1-{2-[(3R)-3-hydroxypyrrolidin-1-yl]-2-oxo-ethyl}pyrazol-4-yl)methyl]-5-oxo-thieno[3,2-b]pyridine-7-carboxylic acid] | < 200
2 | N#Cc1ccccc1Cn1c(=O)c(O)c(C(=O)O)c2sccc21 [Example 54, 4-(2-cyanobenzyl)-6-hydroxy-5-oxo-4,5-dihydrothieno[3,2-b]pyridine-7-carboxylic acid] | 2250 to 10000
3 | O=C(O)c1c(O)c(=O)n(Cc2ccc(OC(F)F)cc2)c2ccsc12 [Example 57, 4-(4-(difluoromethoxy)benzyl)-6-hydroxy-5-oxo-4,5-dihydrothieno[3,2-b]pyridine-7-carboxylic acid] | < 200
4 | CC(=O)Nc1ccc(Cn2c(=O)c(O)c(C(=O)O)c3sccc32)cc1Cl [Example 14, 4-(4-acetamido-3-chlorobenzyl)-6-hydroxy-5-oxo-4,5-dihydrothieno[3,2-b]pyridine-7-carboxylic acid] | 750 to 2250
5 | O=C(O)c1c(O)c(=O)n(Cc2cnn(-c3ccncc3)c2)c2ccsc12 [Example 112, 6-hydroxy-5-oxo-4-{[1-(pyridin-4-yl)-1H-pyrazol-4-yl]methyl}-4,5-dihydrothieno[3,2-b]pyridine-7-carboxylic acid] | 250 to 750
6 | O=C(O)c1c(O)c(=O)n(Cc2cccnc2)c2ccsc12 [Example 60, 6-hydroxy-5-oxo-4-(pyridin-3-ylmethyl)-4,5-dihydrothieno[3,2-b]pyridine-7-carboxylic acid] | 750 to 2250
7 | O=C(O)c1c(O)c(=O)n(CC2CCNCC2)c2ccsc12 [Example 10, 6-hydroxy-5-oxo-4-(4-piperidylmethyl)thieno[3,2-b]pyridine-7-carboxylic acid] | 2250 to 10000
8 | O=C(O)c1c(O)c(=O)n(CC2CCCCC2)c2ccsc12 [Example 44, 4-(cyclohexylmethyl)-6-hydroxy-5-oxo-4,5-dihydrothieno[3,2-b]pyridine-7-carboxylic acid] | 2250 to 10000
9 | O=C(O)c1c(O)c(=O)n(Cc2cccc(F)c2)c2ccsc12 [Example 11, 4-(3-fluorobenzyl)-6-hydroxy-5-oxo-4,5-dihydrothieno[3,2-b]pyridine-7-carboxylic acid] | 250 to 750
10 | O=C(O)c1c(O)c(=O)n(Cc2ccc(-c3ccccc3)nc2)c2ccsc12 [Example 147, 6-hydroxy-5-oxo-4-[(6-phenylpyridin-3-yl)methyl]-4,5-dihydrothieno[3,2-b]pyridine-7-carboxylic acid] | 250 to 750
11 | N#Cc1cccc(Cn2c(=O)c(O)c(C(=O)O)c3sccc32)c1 [Example 58, 4-(3-cyanobenzyl)-6-hydroxy-5-oxo-4,5-dihydrothieno[3,2-b]pyridine-7-carboxylic acid] | 2250 to 10000
12 | O=C(O)c1c(O)c(=O)n(CC2COc3ccccc3C2)c2ccsc12 (stereo not drawn) [Example 80, 4-(chroman-3-ylmethyl)-6-hydroxy-5-oxo-4,5-dihydrothieno[3,2-b]pyridine-7-carboxylic acid] | 2250 to 10000
13 | Cc1cc(Cn2c(=O)c(O)c(C(=O)O)c3sccc32)no1 [Example 82, 6-hydroxy-4-[(5-methylisoxazol-3-yl)methyl]-5-oxo-4,5-dihydrothieno[3,2-b]pyridine-7-carboxylic acid] | 750 to 2250
14 | COc1ccccc1Cn1c(=O)c(O)c(C(=O)O)c2sccc21 [Example 64, 6-hydroxy-4-(2-methoxybenzyl)-5-oxo-4,5-dihydrothieno[3,2-b]pyridine-7-carboxylic acid] | 2250 to 10000
15 | O=C1CC(Cn2c(=O)c(O)c(C(=O)O)c3sccc32)CN1 (stereo not drawn) [Example 76, 6-hydroxy-5-oxo-4-[(5-oxopyrrolidin-3-yl)methyl]-4,5-dihydrothieno[3,2-b]pyridine-7-carboxylic acid] | 250 to 750
16 | O=C(O)c1c(O)c(=O)n(Cc2ccccn2)c2ccsc12 [Example 38, 6-hydroxy-5-oxo-4-(pyridin-2-ylmethyl)-4,5-dihydrothieno[3,2-b]pyridine-7-carboxylic acid] | 2250 to 10000
17 | Cn1nc(Cn2c(=O)c(O)c(C(=O)O)c3sccc32)c2ccccc21 [Example 51] | 2250 to 10000

Row | SMILES | IC50 [nM]
18 | O=C(O)c1c(O)c(=O)n(Cc2cnn(CC(F)(F)F)c2)c2ccsc12 [Example 137, 6-hydroxy-5-oxo-4-{[1-(2,2,2-trifluoroethyl)-1H-pyrazol-4-yl]methyl}-4,5-dihydrothieno[3,2-b]pyridine-7-carboxylic acid] | < 200
19 | O=C(O)c1c(O)c(=O)n(Cc2cccc(C(F)(F)F)c2)c2ccsc12 [Example 43, 6-hydroxy-5-oxo-4-(3-(trifluoromethyl)benzyl)-4,5-dihydrothieno[3,2-b]pyridine-7-carboxylic acid] | 250 to 750
20 | O=C(O)c1c(O)c(=O)n(Cc2cncc(-c3ccccc3)c2)c2ccsc12 [Example 103, 6-hydroxy-5-oxo-4-[(5-phenylpyridin-3-yl)methyl]-4,5-dihydrothieno[3,2-b]pyridine-7-carboxylic acid] | 250 to 750
21 | O=C(O)c1c(O)c(=O)n(Cc2ccc3ccc(=O)[nH]c3c2)c2ccsc12 [Example 77, 6-hydroxy-5-oxo-4-[(2-oxo-1,2-dihydroquinolin-7-yl)methyl]-4,5-dihydrothieno[3,2-b]pyridine-7-carboxylic acid] | 250 to 750
22 | COc1cc(Cn2cc(Cn3c(=O)c(O)c(C(=O)O)c4sccc43)cn2)ccn1 [Example 129, 6-hydroxy-4-({1-[(2-methoxypyridin-4-yl)methyl]-1H-pyrazol-4-yl}methyl)-5-oxo-4,5-dihydrothieno[3,2-b]pyridine-7-carboxylic acid] | < 200
23 | O=C(O)c1c(O)c(=O)n(Cc2ccc(OC(F)(F)F)cc2)c2ccsc12 [Example 56, 6-hydroxy-5-oxo-4-(4-(trifluoromethoxy)benzyl)-4,5-dihydrothieno[3,2-b]pyridine-7-carboxylic acid] | 2250 to 10000
24 | O=C(O)c1c(O)c(=O)n(Cc2cn3ccccc3n2)c2ccsc12 [Example 102, 6-hydroxy-4-(imidazo[1,2-a]pyridin-2-ylmethyl)-5-oxo-4,5-dihydrothieno[3,2-b]pyridine-7-carboxylic acid] | 750 to 2250
25 | COc1cc(Cn2cc(Cn3c(=O)c(O)c(C(=O)O)c4sccc43)cn2)ccc1C#N [Example 26, 4-{[1-(4-cyano-3-methoxybenzyl)-1H-pyrazol-4-yl]methyl}-6-hydroxy-5-oxo-4,5-dihydrothieno[3,2-b]pyridine-7-carboxylic acid] | < 200
26 | CC(=O)Nc1ccccc1Cn1c(=O)c(O)c(C(=O)O)c2sccc21 [Example 39, 4-(2-acetamidobenzyl)-6-hydroxy-5-oxo-4,5-dihydrothieno[3,2-b]pyridine-7-carboxylic acid] | 2250 to 10000
27 | O=C(O)c1c(O)c(=O)n(Cc2ccncc2)c2ccsc12 [Example 47, 6-hydroxy-5-oxo-4-(pyridin-4-ylmethyl)-4,5-dihydrothieno[3,2-b]pyridine-7-carboxylic acid] | 2250 to 10000
28 | COCCOc1ccc(Cn2c(=O)c(O)c(C(=O)O)c3sccc32)cc1 [Example 152, 6-hydroxy-4-[4-(2-methoxyethoxy)benzyl]-5-oxo-4,5-dihydrothieno[3,2-b]pyridine-7-carboxylic acid] | < 200
29 | CCOC(=O)c1c(O)c(=O)n(Cc2ccc(OC)cc2)c2ccsc12 [Example 33, ethyl 6-hydroxy-4-(4-methoxybenzyl)-5-oxo-4,5-dihydrothieno[3,2-b]pyridine-7-carboxylate] | 2250 to 10000
30 | COc1ccccc1-n1cc(Cn2c(=O)c(O)c(C(=O)O)c3sccc32)cn1 [Example 106, 6-hydroxy-4-{[1-(2-methoxyphenyl)-1H-pyrazol-4-yl]methyl}-5-oxo-4,5-dihydrothieno[3,2-b]pyridine-7-carboxylic acid] | < 200
31 | COc1ccc(Cn2c(=O)c(O)c(C(=O)O)c3sccc32)cc1OC [Example 71, 4-(3,4-dimethoxybenzyl)-6-hydroxy-5-oxo-4,5-dihydrothieno[3,2-b]pyridine-7-carboxylic acid] | 250 to 750
32 | Nc1ccc(-n2cc(Cn3c(=O)c(O)c(C(=O)O)c4sccc43)cn2)cc1 [Example 118, 4-{[1-(4-aminophenyl)-1H-pyrazol-4-yl]methyl}-6-hydroxy-5-oxo-4,5-dihydrothieno[3,2-b]pyridine-7-carboxylic acid] | < 200
33 | O=C(O)c1c(O)c(=O)n(Cc2ccccc2F)c2ccsc12 [Example 68, 4-(2-fluorobenzyl)-6-hydroxy-5-oxo-4,5-dihydrothieno[3,2-b]pyridine-7-carboxylic acid] | 2250 to 10000
